# Source: ChEMBL document CHEMBL1201862, “PubChem BioAssay data set” (2004)
#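 48-hour exposure; five concentrations; linearly interpolated endpoints. Here, GI50 denotes the concentration required for 50% inhibition of growth.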 Active and inactive are the calls of the source. No stated cut-off is given here; in the data, active = GI50 up to about 1.1 µM and inactive = higher.
# Assays:
# Experiment in all cases: NCI tumour cell line growth inhibition, 48 h
# ACHN = test system: ACHN
# CAKI-1 = test system: CAKI-1
# COLO 205 = test system: COLO 205
# EKVX = test system: EKVX
# HCT-116 = test system: HCT-116
# HOP-92 = test system: HOP-92
# IGROV-1 = test system: IGROV-1
# KM12 = test system: KM12
# MOLT-4 = test system: MOLT-4
# OVCAR-4 = test system: OVCAR-4
# OVCAR-5 = test system: OVCAR-5
# OVCAR-8 = test system: OVCAR-8
# RPMI-8226 = test system: RPMI-8226
# SF-268 = test system: SF-268
# SF-295 = test system: SF-295
# SK-MEL-5 = test system: SK-MEL-5
# SNB-19 = test system: SNB-19
# SW-620 = test system: SW-620
# UACC-257 = test system: UACC-257
# UACC-62 = test system: UACC-62
SMILES,GI50 (ACHN),GI50 (CAKI-1),GI50 (COLO 205),GI50 (EKVX),GI50 (HCT-116),GI50 (HOP-92),GI50 (IGROV-1),GI50 (KM12),GI50 (MOLT-4),GI50 (OVCAR-4),GI50 (OVCAR-5),GI50 (OVCAR-8),GI50 (RPMI-8226),GI50 (SF-268),GI50 (SF-295),GI50 (SK-MEL-5),GI50 (SNB-19),GI50 (SW-620),GI50 (UACC-257),GI50 (UACC-62)
C=C(Br)CN(C)CC(=C)Br,> 100 µM (inactive),> 100 µM (inactive),> 100 µM (inactive),> 100 µM (inactive),> 100 µM (inactive),> 100 µM (inactive),> 100 µM (inactive),> 100 µM (inactive),> 100 µM (inactive),> 100 µM (inactive),> 100 µM (inactive),> 100 µM (inactive),> 100 µM (inactive),> 100 µM (inactive),> 100 µM (inactive),> 100 µM (inactive),> 100 µM (inactive),> 100 µM (inactive),> 100 µM (inactive),> 100 µM (inactive)
CC(=O)NC(CCCNC(=O)N(C)N=O)C(=O)NCc1ccccc1 (stereo not given),> 100 µM (inactive),> 100 µM (inactive),> 100 µM (inactive),> 100 µM (inactive),> 100 µM (inactive),> 100 µM (inactive),> 100 µM (inactive),> 100 µM (inactive),> 100 µM (inactive),> 100 µM (inactive),> 100 µM (inactive),> 100 µM (inactive),> 100 µM (inactive),> 100 µM (inactive),> 100 µM (inactive),> 100 µM (inactive),> 100 µM (inactive),> 100 µM (inactive),> 100 µM (inactive),> 100 µM (inactive)
O=C(O)CNC(=O)c1cccc2c(=O)c3ccccc3[nH]c12,> 100 µM (inactive),> 100 µM (inactive),> 100 µM (inactive),> 100 µM (inactive),> 100 µM (inactive),> 100 µM (inactive),26.9 µM (inactive),> 20.9 µM (inactive),> 100 µM (inactive),> 100 µM (inactive),> 100 µM (inactive),> 100 µM (inactive),> 100 µM (inactive),> 100 µM (inactive),> 100 µM (inactive),99.8 µM (inactive),> 100 µM (inactive),> 100 µM (inactive),> 100 µM (inactive),99.8 µM (inactive)
CC1NC(=O)C2=C1C(N)=NC(=O)C2 (stereo not given),> 100 µM (inactive),> 100 µM (inactive),> 100 µM (inactive),> 100 µM (inactive),> 100 µM (inactive),> 100 µM (inactive),> 100 µM (inactive),> 100 µM (inactive),> 100 µM (inactive),> 100 µM (inactive),> 100 µM (inactive),> 100 µM (inactive),> 100 µM (inactive),> 100 µM (inactive),> 100 µM (inactive),> 100 µM (inactive),> 100 µM (inactive),> 100 µM (inactive),> 100 µM (inactive),> 100 µM (inactive)
CCC1C(=O)C[C@H]2[C@@H]3C(O)CC4=CC(=O)CC[C@]4(C)[C@H]3CC[C@]12C (stereo not given in full),> 50 µM (inactive),> 50 µM (inactive),> 50 µM (inactive),> 50 µM (inactive),> 50 µM (inactive),> 50 µM (inactive),> 50 µM (inactive),> 50 µM (inactive),> 50 µM (inactive),> 50 µM (inactive),> 50 µM (inactive),> 50 µM (inactive),> 50 µM (inactive),> 50 µM (inactive),> 50 µM (inactive),> 50 µM (inactive),> 50 µM (inactive),> 50 µM (inactive),> 50 µM (inactive),> 50 µM (inactive)
CCCCCC[N+](C)(C)Cc1ccc(C[N+](C)(C)CCCCCC)cc1,3.56 µM (inactive),3.19 µM (inactive),1.82 µM (inactive),3.94 µM (inactive),3.71 µM (inactive),2.97 µM (inactive),2.54 µM (inactive),2.25 µM (inactive),1.54 µM (inactive),4.58 µM (inactive),10.9 µM (inactive),3.1 µM (inactive),4.23 µM (inactive),2.79 µM (inactive),2.79 µM (inactive),6.64 µM (inactive),5.2 µM (inactive),4.84 µM (inactive),10.8 µM (inactive),8.32 µM (inactive)
COC(=O)C1(F)C(=O)NC(=O)NC1O (stereo not given),> 75 µM (inactive),97.9 µM (inactive),40.4 µM (inactive),99.8 µM (inactive),50.8 µM (inactive),> 58.9 µM (inactive),> 100 µM (inactive),50.2 µM (inactive),31.8 µM (inactive),80 µM (inactive),> 100 µM (inactive),> 100 µM (inactive),> 100 µM (inactive),> 100 µM (inactive),> 100 µM (inactive),> 100 µM (inactive),> 100 µM (inactive),> 77.6 µM (inactive),> 100 µM (inactive),> 100 µM (inactive)
COc1cc(/C=C2/C(=O)NC(Cc3cc(OC)c(OC)c(C)c3OC)C(=O)N2Cc2ccccc2)c(OC)c(C)c1OC (stereo not given),61.7 µM (inactive),39.6 µM (inactive),17.7 µM (inactive),38.9 µM (inactive),> 100 µM (inactive),17.8 µM (inactive),61.9 µM (inactive),55.5 µM (inactive),23 µM (inactive),44.4 µM (inactive),93.8 µM (inactive),47.4 µM (inactive),24.3 µM (inactive),69.5 µM (inactive),50.5 µM (inactive),43.7 µM (inactive),81.3 µM (inactive),80.2 µM (inactive),61.5 µM (inactive),89.7 µM (inactive)
CC/C=C/C[C@H](O[Si](C)(C)C(C)(C)C)[C@H]1C[C@H]2O[C@H]([C@@H](O)C#C[Si](C)(C)C)C[C@H]2O1,15.2 µM (inactive),11.3 µM (inactive),13.5 µM (inactive),12.9 µM (inactive),12.1 µM (inactive),10.4 µM (inactive),14.3 µM (inactive),17.9 µM (inactive),12.6 µM (inactive),5.85 µM (inactive),14.1 µM (inactive),14.8 µM (inactive),12.9 µM (inactive),13.8 µM (inactive),14.3 µM (inactive),6.78 µM (inactive),13.8 µM (inactive),16.6 µM (inactive),9.75 µM (inactive),17.7 µM (inactive)
CCCc1[nH]c2ccccc2c1-c1c(CCC)[nH]c2ccccc12,16.9 µM (inactive),18.6 µM (inactive),17.9 µM (inactive),16.8 µM (inactive),4.6 µM (inactive),19.5 µM (inactive),12 µM (inactive),16.6 µM (inactive),30.1 µM (inactive),21.5 µM (inactive),16.9 µM (inactive),3.35 µM (inactive),19.7 µM (inactive),9.62 µM (inactive),15.7 µM (inactive),10.2 µM (inactive),13.5 µM (inactive),6.76 µM (inactive),18.1 µM (inactive),13.3 µM (inactive)
COc1ccc2cc(CN3CCC(C4CCN(Cc5ccc6cc(OC)ccc6c5)CC4)CC3)ccc2c1,7.35 µM (inactive),2.73 µM (inactive),1.78 µM (inactive),11.9 µM (inactive),2.39 µM (inactive),2.37 µM (inactive),8.77 µM (inactive),2.43 µM (inactive),2.2 µM (inactive),4.42 µM (inactive),21.8 µM (inactive),5.15 µM (inactive),1.52 µM (inactive),3.16 µM (inactive),2.99 µM (inactive),1.66 µM (inactive),3.2 µM (inactive),2.64 µM (inactive),2.09 µM (inactive),1.97 µM (inactive)
CCOC(=O)/C=C1\Oc2ccccc2C1(C)O (stereo not given),> 100 µM (inactive),> 100 µM (inactive),> 100 µM (inactive),> 100 µM (inactive),> 100 µM (inactive),> 100 µM (inactive),> 100 µM (inactive),> 100 µM (inactive),> 100 µM (inactive),> 100 µM (inactive),> 100 µM (inactive),> 100 µM (inactive),> 100 µM (inactive),> 100 µM (inactive),> 100 µM (inactive),> 100 µM (inactive),> 100 µM (inactive),> 100 µM (inactive),> 100 µM (inactive),> 100 µM (inactive)
COc1ccc2c(c1)c(=O)c1ccccc1n2/C=C/C(=O)O,> 100 µM (inactive),> 100 µM (inactive),> 56.8 µM (inactive),> 100 µM (inactive),> 100 µM (inactive),> 100 µM (inactive),> 100 µM (inactive),> 100 µM (inactive),> 100 µM (inactive),> 100 µM (inactive),> 100 µM (inactive),> 100 µM (inactive),> 100 µM (inactive),> 68.2 µM (inactive),> 100 µM (inactive),> 100 µM (inactive),> 100 µM (inactive),> 100 µM (inactive),> 100 µM (inactive),> 100 µM (inactive)
C/C(=N\N=C(/S)N1CCCCCC1)c1cccc[n+]1[O-],4.58 µM (inactive),6.37 µM (inactive),0.499 µM (active),7.23 µM (inactive),0.433 µM (active),11.1 µM (inactive),1.91 µM (inactive),4.52 µM (inactive),0.129 µM (active),8.17 µM (inactive),21.4 µM (inactive),3.12 µM (inactive),0.116 µM (active),9.29 µM (inactive),5.3 µM (inactive),2.22 µM (inactive),7.41 µM (inactive),1.64 µM (inactive),1.33 µM (inactive),1.88 µM (inactive)
